Laboratory results reported in PubChem BioAssay (NCI).
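In this assay, cells in 96-well plates receive the compound at five concentrations for 48 hours. Endpoints are linearly interpolated between the surrounding concentrations. GI50: concentration for 50% inhibition of growth. TGI: concentration producing complete growth inhibition.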

Tests used:
Assay in all cases: NCI tumour cell line growth inhibition, 48 h
MDA-N = tested on: MDA-N
DU-145 prostate = tested on: DU-145 prostate
HS 578T breast = tested on: HS 578T breast
MDA-MB-231 breast = tested on: MDA-MB-231 breast
EKVX NSCLC = tested on: EKVX NSCLC
COLO 205 colon = tested on: COLO 205 colon
HL-60(TB) leukemia = tested on: HL-60(TB) leukemia
SR leukemia = tested on: SR leukemia
NCI-H226 lung = tested on: NCI-H226 lung
KM12 colon = tested on: KM12 colon
NCI/ADR-RES ovarian = tested on: NCI/ADR-RES ovarian
MDA-MB-435 = tested on: MDA-MB-435

Structure (SMILES)	TGI (MDA-N) [µM]	TGI (DU-145 prostate) [µM]	TGI (HS 578T breast) [µM]	TGI (MDA-MB-231 breast) [µM]	TGI (EKVX NSCLC) [µM]	TGI (COLO 205 colon) [µM]	TGI (HL-60(TB) leukemia) [µM]	TGI (SR leukemia) [µM]	TGI (NCI-H226 lung) [µM]	TGI (KM12 colon) [µM]	TGI (NCI/ADR-RES ovarian) [µM]	TGI (MDA-MB-435) [µM]	GI50 (HS 578T breast) [µM]	GI50 (KM12 colon) [µM]	GI50 (MDA-N) [µM]	GI50 (HL-60(TB) leukemia) [µM]	GI50 (MDA-MB-435) [µM]
Cc1cc(O)cc(O)c1C(=O)O[C@]1(C)C(=O)C=C2C=C(/C=C/C(=O)O)OC=C2C1=O	> 100	> 100	> 100	> 100	> 100	> 100	75.1	99	> 100	> 100	> 100	> 100	–	–	–	–	–
O=[N+]([O-])c1ccc(N2N=C(c3ccc4ccccc4c3O)CC2c2ccc(Cl)cc2)c([N+](=O)[O-])c1 (centres undefined)	30.8	> 100	> 100	> 100	–	> 100	–	40.6	> 100	> 100	> 100	33	–	–	–	–	–
CC(=O)Oc1cc(OC(C)=O)c2c(C)cc(=O)oc2c1	> 100	> 100	> 100	> 100	> 100	> 100	–	> 100	> 100	> 100	> 100	> 100	–	–	–	–	–
CCOC(=O)C(=CN1CCNC1=S)C(=O)OCC	> 100	> 100	> 100	> 100	> 100	> 100	> 100	> 100	> 100	> 100	> 100	> 100	> 100	> 100	–	–	–
CC(=O)N(C(C)=O)n1c(Cc2ccc(C)cc2)nn(C(C)=O)c1=O	> 100	> 100	> 100	> 100	> 100	> 100	> 100	> 100	> 100	> 100	> 100	> 100	–	–	–	–	–
Cc1ccc(S(=O)(=O)N/N=C2/CCC(C(C)(C)C)CC2Br)cc1 (centres undefined)	> 100	> 100	47.1	> 100	> 100	> 100	> 100	> 100	34	47	36.5	51.8	–	–	–	–	–
CCCc1nnc2sc(COc3cc(Cl)c(OCc4nn5c(CCC)nnc5s4)cc3Cl)nn12	> 100	> 100	> 100	> 100	82.2	> 100	80.5	1.77	> 100	> 100	> 100	> 100	–	–	–	–	–
CC12ON(P(=O)(c3ccccc3)c3ccccc3)C(C)(c3ccccc31)c1ccccc12	> 100	> 100	> 100	> 100	> 100	> 100	> 100	> 100	> 100	> 100	> 100	> 100	–	–	–	–	–
O=C1C2=C(SCCS2)C(=O)c2c(Sc3ccc(Cl)cc3)c(Sc3ccc(Cl)cc3)c(Sc3ccc(Cl)cc3)c(Sc3ccc(Cl)cc3)c21	> 100	> 100	> 100	85.3	> 100	> 100	–	36.2	> 100	> 100	> 100	> 100	–	–	–	–	–
COc1c(C)c(C/C=C(\C)CC/C=C(\C)CC/C=C(\C)CCC=C(C)C)c(OC)c2ccccc12	> 100	> 100	> 100	> 100	> 100	> 100	–	90.6	–	> 100	> 100	> 100	–	–	–	–	–
CC(=O)OC(C)c1cc2c(s1)C(=O)c1c(C(C)OC(C)=O)csc1C2=O (centres undefined)	0.382	1.86	7.59	3.6	3.22	3.5	2.15	> 100	3.62	3.41	3.62	0.34	2.08	–	0.214	0.0682	0.185
c1csc(-c2ccsc2-c2ccsc2)c1	> 100	> 100	> 100	> 100	> 100	> 100	> 100	> 100	–	> 100	> 100	> 100	–	–	–	–	–
O=C(C(Cl)=C(N1CCCCC1)N1CCCCC1)C(Cl)Cl	> 100	> 100	> 100	> 100	> 100	> 100	> 100	> 100	> 100	> 100	> 100	> 100	–	–	–	–	–
COC([C@@H](OC(=O)c1ccccc1)[C@H](OC(=O)c1ccccc1)C(O)COC(=O)c1ccccc1)n1cc(C)c(=O)[nH]c1=O (some centres undefined)	> 100	> 100	> 100	> 100	> 100	51.9	–	> 100	74.5	–	> 100	> 100	–	–	–	–	–
Cc1ccc2c(C(=O)c3c(C)n(CCN4CCOCC4)c4ccccc34)cccc2c1	84.8	94.3	25.6	47.9	63.3	–	10.4	> 100	19.9	57.7	43.1	5.42	–	–	–	–	–
O=C1/C(=C/c2ccccc2)NC(=S)N1CN1CCCCC1	> 100	> 100	> 100	> 100	> 100	> 100	–	> 100	> 100	> 100	> 100	> 100	–	–	–	–	–
CN(Cc1cnc2nc(N)nc(N)c2n1)c1ccc(C(=O)NC(CCC(=O)NC(CC(P(=O)(O)O)P(=O)(O)O)C(=O)O)C(=O)O)cc1 (centres undefined)	> 100	> 100	> 100	> 100	> 100	> 100	–	> 100	> 100	–	> 100	> 100	–	–	–	–	–
COc1ccc(C2SCC(=O)N2NC(=O)C(C)Oc2ccccc2C)cc1 (centres undefined)	> 100	> 100	> 100	> 100	> 100	> 100	61.2	> 100	> 100	> 100	> 100	> 100	–	–	–	–	–
CCC(=O)/C(=C\I)c1ccccc1	11.2	18.4	> 100	3.29	33.6	3.59	6.35	–	56.7	19.9	32.2	10.4	–	–	–	–	–

Structure (SMILES)	TGI (MDA-N) [µM]	TGI (DU-145 prostate) [µM]	TGI (HS 578T breast) [µM]	TGI (MDA-MB-231 breast) [µM]	TGI (EKVX NSCLC) [µM]	TGI (COLO 205 colon) [µM]	TGI (HL-60(TB) leukemia) [µM]	TGI (SR leukemia) [µM]	TGI (NCI-H226 lung) [µM]	TGI (KM12 colon) [µM]	TGI (NCI/ADR-RES ovarian) [µM]	TGI (MDA-MB-435) [µM]	GI50 (HS 578T breast) [µM]	GI50 (KM12 colon) [µM]	GI50 (MDA-N) [µM]	GI50 (HL-60(TB) leukemia) [µM]	GI50 (MDA-MB-435) [µM]
COCC12CCC(OC)C34C5CC6(O)C(OC)CC(OC(C)=O)(C5C6OC(=O)c5ccccc5)C(C(OC)C13)C4N(C)C2 (centres undefined)	> 100	> 100	> 100	> 100	> 100	> 100	> 100	> 100	> 100	> 100	> 100	> 100	–	–	–	–	–
NC(=Nc1ccccc1)c1ccccc1N	> 100	> 100	> 100	> 100	> 100	> 100	> 100	> 100	> 100	> 100	> 100	> 100	–	–	–	–	–
O=[N+]([O-])c1ccc(O)c(/C=N/c2nc(-c3ccccc3)cs2)c1	> 83.6	> 87.1	74.6	> 100	> 100	56.7	> 100	21.7	85.3	> 100	> 91.4	> 100	–	–	–	–	–
COC(=O)c1cccc(OC)c1C#Cc1c(OC)cccc1OC	> 100	> 100	> 100	> 100	> 100	> 100	> 100	> 100	> 100	> 100	> 100	> 100	–	–	–	–	–
Cc1cc(N(CCC#N)CCC#N)ccc1/C=C1\SC(=S)NC1=O	> 100	> 100	85	> 100	> 100	> 100	> 100	> 100	> 100	> 100	> 100	> 100	–	–	–	–	–
COC(=O)NC(Cc1ccccc1)NC(C)=O (centres undefined)	> 100	> 100	> 100	> 100	> 100	> 100	> 100	> 100	–	> 100	> 100	> 100	–	–	–	–	–
N=c1oc2ccccc2cc1-c1nc2ccccc2c(=O)[nH]1	> 100	> 100	84.3	> 100	> 100	> 100	> 100	> 100	> 100	> 100	> 100	> 100	–	–	–	–	–
Cc1cc(N2CCCC2)c([N+](=O)[O-])cc1[N+](=O)[O-]	> 100	> 100	> 100	> 100	> 100	> 100	> 100	> 100	> 100	> 100	> 100	> 100	–	–	–	–	–
CCCC(=O)NC(Nc1ccc(F)cc1)(C(F)(F)F)C(F)(F)F	> 100	> 100	> 100	> 100	> 100	> 92.8	> 100	> 100	> 100	> 100	> 100	> 100	–	–	–	–	–
COC(=O)c1ccccc1C1=C([N+](=O)[O-])C(c2ccccc2)C(C#N)=C(N)O1 (centres undefined)	> 100	> 100	> 100	> 100	> 100	> 100	> 100	> 100	> 100	> 100	> 100	> 100	–	–	–	–	–
COc1cc2c(cc1OC)[C@@](C)(C(O)C(O)C(C)(C)O)NCC2 (some centres undefined)	> 100	> 100	> 100	> 100	> 100	> 100	> 100	> 100	> 100	–	> 100	> 100	–	–	–	–	–
CN(C)CC1CCC/C(=C\c2ccc(OC(=O)/C=C/c3ccc(Cl)c(Cl)c3)cc2)C1=O (centres undefined)	12.1	> 93.3	> 85.3	11.9	23.5	3.93	3.45	3.54	4.56	3.61	18.5	> 60.1	–	–	–	–	–
COC1=C2C=[N+](C)C3C(=C2C=CC1OC)Cc1cc2c(cc13)OCO2 (centres undefined)	23.6	27.5	51.2	27.8	35.6	18.4	15.7	42	38.4	10.4	> 100	33.3	–	–	–	–	–
CCOC(=O)c1[nH]c2cccc3c2c1CC[C@H](NC(=O)C(F)(F)F)C3=O	> 100	> 100	61.8	> 100	0.0531	> 100	> 100	> 100	> 100	> 100	> 100	> 100	–	–	–	–	–
COC1(c2cccs2)c2ccccc2C(OC)(c2cccs2)c2ccccc21 (centres undefined)	> 100	> 100	19.8	> 100	> 100	> 100	> 100	> 100	> 100	> 100	> 100	> 100	–	–	–	–	–
CCOC(=O)C(=O)CC(=O)C1=C(c2ccccc2OC)CC(c2cccs2)=CC1=O	> 100	> 100	> 100	> 100	> 100	> 100	> 100	–	> 100	> 100	> 100	> 100	–	–	–	–	–
COP(=O)(O)C(N)Cc1c[nH]c2ccccc12 (centres undefined)	> 100	> 100	> 100	> 100	–	> 100	–	> 100	> 100	–	> 100	> 100	–	–	–	–	–
CCCN(CCC)C1CCc2c(ccc3cc[nH]c23)C1 (centres undefined)	> 100	> 100	> 100	> 100	> 100	> 100	–	73.3	> 100	> 100	> 100	> 100	–	–	–	–	–
